Test results: patent US20080280837A1, “Biologically Active Compounds with Anti-Angiogenic Properties” (priority 2004, published 2008)

Biological target: T1, Human SST5 somatostatin receptor (SSTR5) (Homo sapiens, UniProt P35346)
T1 construct: expressed in transfected cells; host or cells: HEK-293 EBNA
Test: Filter plate assay for SST5 receptor, displacement of [125I]SST-14
Format: binding
Method: Receptor membrane preparations containing the desired cloned receptor (for example cloned human somatostatin receptor subtype 5, SSTR5) and radio-labeled ligand (for example 3-[^125I]iodotyrosyl^11 Somatostatin-14)) were diluted at the concentration required for testing and according to the specific parameters associated with the selected receptor-ligand combination, including receptor Bmax, ligand Kd and any other parameters necessary to optimize the experimental conditions. When tested for competition activity to the reference ligand, “compound 1” was mixed with membrane suspension and the radiolabeled reference ligand (with or without an excess of cold ligand to the receptor for determination of non-specific binding) and incubated at the temperature required by internal standard operating procedures. Following incubation, the binding reaction was stopped by the addition of ice-cold washing buffer and filtered on appropriate filters, which are then counted. Data analysis and curve-fitting was performed with XLfit (IDBS).
10 mM solutions of test compounds in 100% DMSO were prepared. ˜160 μl was used for each dilution (20 μl/well in triplicate).
A 1.25 mM assay stock was prepared by making a 1:8 dilution of the 10 mM solution. (To 30 μL of the 10 mM solution was added 210 μL milli-Q H2O. A 1:5 dilution series in milli-Q H2O was then prepared.
Assays were performed in triplicate at each concentration within the 1:5 dilution series: 250 μM, 50 μM, 10 μM, […], 0.4 μM, 0.08 μM, 0.016 μM, 0.0032 μM, etc. (for SST4 assay) and 125 μM, 10 μM, 2 μM, 1 μM, 0.5 μM, etc (for SST5 assay).
Human SST5 somatostatin receptor was transfected into HEK-293 EBNA cells. Membranes were suspended in assay buffer (50 mM Tris-HCl, 1 mM EGTA, 5 mM MgCl2, 10% sucrose, pH 7.5).
After thawing the frozen receptor preparation rapidly, receptors were diluted with binding buffer, homogenized, and kept on ice. • 1. Use Multiscreen glass fiber filter plates (Millipore, Cat No MAFCNOB10) precoated with o.5% PEI for ˜2 hr at 4° C. Before use add 200 μl/well assay buffer and filter using Multiscreen Separation System. • 2. Incubate 5.5 μg of membranes (40 μl of a 1:40 dilution), buffer and [^125I]SST-14 (4 nM, ˜80 000 cpm, 2000 Ci/mmol) in a total volume of 200 μl for 60 min at 25° C. […] Prepare serial dilutions (1:5) of compounds, as described above and instead of adding SST-14 in well, add 20 μl of compounds (Table 1). • 3. Filter using Multiscreen Separation System with 5×0.2 ml ice-cold Assay buffer. • 4. Remove the plastic underdrain and dry plate in oven for 1 hr at 40° C. • 5. Seal tape to the bottom of the plate. • 6. Add 50 μl/well scintillant (Supermix, Wallac, Cat No 1200-439). • 7. Seal and count in the BJET, program 2.
In primary screening experiments compounds were tested in duplicate for a particular concentration.

T1 sequence (P35346 whole entry): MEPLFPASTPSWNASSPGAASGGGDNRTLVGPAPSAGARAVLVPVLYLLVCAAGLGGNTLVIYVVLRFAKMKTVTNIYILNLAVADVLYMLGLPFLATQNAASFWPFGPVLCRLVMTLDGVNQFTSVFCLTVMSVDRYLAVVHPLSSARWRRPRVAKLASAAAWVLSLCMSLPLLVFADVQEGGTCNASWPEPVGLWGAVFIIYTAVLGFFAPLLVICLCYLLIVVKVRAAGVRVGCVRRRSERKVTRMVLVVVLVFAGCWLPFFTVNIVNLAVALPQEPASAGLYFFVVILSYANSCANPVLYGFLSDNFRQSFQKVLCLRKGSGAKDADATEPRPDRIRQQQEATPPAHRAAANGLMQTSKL

| SSTR5 Inhib 0.5 uM % (inhibition of binding of SST-14 to SSTR5) | SSTR5 Inhib 10 uM % (inhibition of binding of SST-14 to SSTR5) | SMILES |
| --- | --- | --- |
| 90% | 98% | COC[C@H]1OC(OCc2ccccc2)[C@H](NC(=O)CCN)[C@H](OCc2ccc3ccccc3c2)[C@@H]1O (some centres unmarked) [Compound 18] |
| 88% | 98% | COC[C@H]1OC(OCc2ccc(Cl)cc2)[C@H](NC(=O)CCCN)[C@@H](OCc2ccc3ccccc3c2)[C@@H]1O (some centres unmarked) [Compound 19] |
| 81% | 97% | COC[C@H]1OC(OCc2ccc3ccccc3c2)[C@H](NC(=O)CCN)[C@H](OCc2ccccc2)[C@@H]1O (some centres unmarked) [Compound 21] |
| 67% | 96% | COC[C@H]1OC(OCc2ccc(Cl)cc2)[C@H](NC(=O)CCCN)[C@H](OCc2ccc3ccccc3c2)[C@@H]1O (some centres unmarked) [Compound 24] |
| 77% | 96% | COC[C@H]1OC(OCc2ccc3ccccc3c2)[C@H](NC(=O)CCCN)[C@@H](OCc2ccc(-c3ccccc3)cc2)[C@@H]1O (some centres unmarked) [Compound 25] |
| 77% | 96% | COC[C@H]1OC(OCc2ccc3ccccc3c2)[C@H](NC(=O)CCN)[C@H](OCc2ccc(-c3ccccc3)cc2)[C@@H]1O (some centres unmarked) [Compound 26] |
| 70% | 96% | COC[C@H]1OC(OCCc2ccccc2)[C@H](NC(=O)CCCN)[C@H](OCc2ccc3ccccc3c2)[C@@H]1O (some centres unmarked) [Compound 28] |
| 77% | 96% | COC[C@H]1OC(OCc2ccc3ccccc3c2)[C@H](NC(=O)CCCN)[C@@H](OCc2ccc(-c3ccccc3)cc2)[C@@H]1O (some centres unmarked) [Compound 29] |
| 80% | 95% | COC[C@H]1OC(OCc2ccccc2)[C@H](NC(=O)CCCN)[C@@H](OCc2ccc3ccccc3c2)[C@@H]1O (some centres unmarked) [Compound 32] |
| 81% | 95% | COC[C@H]1OC(OCc2ccccc2)[C@H](NC(=O)CCN)[C@H](OCc2ccc3ccccc3c2)[C@@H]1O (some centres unmarked) [Compound 37] |
| 79% | 95% | COC[C@H]1OC(OCc2ccc(-c3ccccc3)cc2)[C@H](NC(=O)CCCN)[C@@H](OCc2ccc3ccccc3c2)[C@@H]1O (some centres unmarked) [Compound 38] |
| 68% | 94% | COC[C@H]1OC(OCc2ccc3ccccc3c2)[C@H](NC(=O)CCCN)[C@H](OCc2ccc(-c3ccccc3)cc2)[C@@H]1O (some centres unmarked) [Compound 43] |
| 78% | 94% | COC[C@H]1OC(OCCc2ccccc2)[C@H](NC(=O)CCCN)[C@@H](OCc2ccc3ccccc3c2)[C@@H]1O (some centres unmarked) [Compound 44] |
| 68% | 93% | COC[C@H]1OC(OCc2ccc3ccccc3c2)[C@H](NC(=O)CCCN)[C@@H](OCc2ccc(Cl)cc2)[C@@H]1O (some centres unmarked) [Compound 47] |
| 66% | 92% | COC[C@H]1OC(OCc2ccc(Cl)cc2)[C@H](NC(=O)CCCN)[C@@H](OCc2ccc3ccccc3c2)[C@@H]1O (some centres unmarked) [Compound 48] |

The remaining lines, values behind:

| SMILES | SSTR5 Inhib 0.5 uM % (inhibition of binding of SST-14 to SSTR5) | SSTR5 Inhib 10 uM % (inhibition of binding of SST-14 to SSTR5) |
| --- | --- | --- |
| COC[C@H]1OC(OCc2ccc3ccccc3c2)[C@H](NC(=O)CCCNC(=N)N)[C@H](OCc2ccc(Cl)cc2)[C@@H]1O (some centres unmarked) [Compound 17] | 84% | 98% |
| COC[C@H]1OC(OCc2ccc3ccccc3c2)[C@H](NC(=O)CCCN)[C@H](OCc2ccc(Cl)cc2)[C@@H]1O (some centres unmarked) [Compound 20] | 76% | 97% |
| COC[C@H]1OC(OCc2ccccc2)[C@H](NC(=O)CCN)[C@H](OCc2ccc(Cl)cc2)[C@@H]1O (some centres unmarked) [Compound 22] | 80% | 96% |
| COC[C@H]1OC(OCc2ccc3ccccc3c2)[C@H](NC(=O)CCCNC(=N)N)[C@@H](OCc2ccc(Cl)cc2)[C@@H]1O (some centres unmarked) [Compound 23] | 80% | 96% |
| COC[C@H]1OC(OCc2ccc(Cl)cc2)[C@H](NC(=O)CCCN)[C@H](OCc2ccc(-c3ccccc3)cc2)[C@@H]1O (some centres unmarked) [Compound 27] | 74% | 96% |
| COC[C@H]1OC(OCc2ccc(Cl)cc2)[C@H](NC(=O)CCCN)[C@@H](OCc2ccc(-c3ccccc3)cc2)[C@@H]1O (some centres unmarked) [Compound 30] | 80% | 96% |
| COC[C@H]1OC(OCc2ccc(-c3ccccc3)cc2)[C@H](NC(=O)CCCN)[C@@H](OCc2ccc(-c3ccccc3)cc2)[C@@H]1O (some centres unmarked) [Compound 31] | 85% | 96% |
| COC[C@H]1OC(OCc2ccc(Cl)cc2)[C@H](NC(=O)CCCN)[C@@H](OCc2ccc(Cl)cc2)[C@@H]1O (some centres unmarked) [Compound 33] | 68% | 95% |
| COC[C@H]1OC(OCCc2ccccc2)[C@H](NC(=O)CCN)[C@H](OCc2ccc(Cl)cc2)[C@@H]1O (some centres unmarked) [Compound 34] | 61% | 95% |
| COC[C@H]1OC(OCc2ccc3ccccc3c2)[C@H](NC(=O)CCNC(=N)N)[C@H](OCc2ccc(Cl)cc2)[C@@H]1O (some centres unmarked) [Compound 35] | 60% | 95% |
| COC[C@H]1OC(OCc2ccc3ccccc3c2)[C@H](NC(=O)CCNC(=N)N)[C@H](OCc2ccc(-c3ccccc3)cc2)[C@@H]1O (some centres unmarked) [Compound 36] | 67% | 95% |
| COC[C@H]1OC(OCc2ccc(Cl)cc2)[C@H](NC(=O)CCN)[C@H](OCc2ccc(Cl)cc2)[C@@H]1O (some centres unmarked) [Compound 39] | 74% | 95% |
| COC1C(O)C(COCc2ccc(-c3ccccc3)cc2)OC(OCc2ccc(Cl)cc2)C1NC(=O)CCCN (centres unmarked) [Compound 40] | 66% | 95% |
| COC[C@H]1OC(OCc2ccc(Cl)cc2)[C@H](NC(=O)CCCN)[C@H](OCc2ccc(Cl)cc2)[C@@H]1O (some centres unmarked) [Compound 41] | 83% | 94% |
| COC[C@H]1OC(OCCc2ccccc2)[C@H](NC(=O)CCCN)[C@@H](OCc2ccc(Cl)cc2)[C@@H]1O (some centres unmarked) [Compound 42] | 77% | 94% |
| CSC1O[C@H](COCc2ccccc2)[C@@H](O)[C@@H](OCc2ccc(Cl)cc2)[C@H]1NC(=O)CNC(=N)N (some centres unmarked) [Compound 45] | 71% | 93% |
| COC[C@H]1OC(OCc2ccccc2)[C@H](NC(=O)CCCN)[C@H](OCc2ccc(-c3ccccc3)cc2)[C@@H]1O (some centres unmarked) [Compound 46] | 71% | 93% |
| CSC1O[C@H](COCc2ccc(Cl)cc2)[C@@H](O)[C@@H](OCc2ccc3ccccc3c2)[C@H]1NC(=O)CCCNC(=N)N (some centres unmarked) [Compound 49] | 60% | 92% |
| COC[C@H]1OC(OCc2ccc(Cl)cc2)[C@H](NC(=O)CCNC(=N)N)[C@H](OCc2ccc3ccccc3c2)[C@@H]1O (some centres unmarked) [Compound 50] | 74% | 92% |
